Reference: publication PMC5630639 (Scientific Reports, 2017)

Assays:
bladder cancer cells = test system: bladder cancer cells; design: method as in PMID 18281555; settings: cited from earlier work
MGC-803 cells = assay: CCK-8 proliferation assay, MGC-803; type: cell-based, human; settings: Homo sapiens, MGC-803; 48 h, CCK-8, mean ± SD
Description: (§1) All synthesized β-lactam-azide derivatives were evaluated for their antiproliferative activity against three cancer cell lines (MGC-803, MCF-7, A549) using CCK-8 proliferation assay. The well-known anticancer drug CA-4P was used as a control[36],[37].
(§2) MGC-803 cell line was obtained from the Chinese Academy of Sciences (Shanghai, China). MCF-7 and A549 were from the National Cell Center, China. MGC-803 cells were cultured in DMEM culture medium (DMEM, Biological Industries, Kibbutz Beit Haemek, Israel). A549 and MCF-7 cells were cultured in 1640 medium (1640, Biological Industries, Kibbutz Beit Haemek, Israel). All medium were supplemented with 10% fetal bovine serum, 100 U/ml penicillin (North China Pharmaceutical group Co.), and 100 µg/ml streptomycin (North China Pharmaceutical group Co.). All cells were cultured at 37 °C in a humidified incubator containing 5% CO2.
(§3) Synthesized analogues used in the study were dissolved in 100% cell culture grade DMSO and the final concentration of DMSO as <0.1% for testing on cancer cell lines. Cytotoxicity assays were performed on the human gastric carcinoma cell line MGC-803, the human mammary carcinoma cell line MCF-7, the human lung carcinoma cell line A549. Cells (3500–5000/well) were seeded into 96-well plates in 100 µL of culture medium. The cells were treated in triplicate with a gradient concentration of testing compounds and incubated at 37 °C, 5% CO2 for 48 h. For all cell lines, CCK-8 assay was performed to measure cytotoxic effects. The absorbance was measured using a microplate reader (BioTek Instrument, Inc. Vermont, USA) with a test wavelength of 450 nm. The absorbance levels were corrected against untreated control absorbance values. All experiments were performed in triplicate and SPSS17.0 was used for data analysis to obtain IC50 values.

MCF-7 cells = assay: CCK-8 proliferation assay, MCF-7; type: cell-based, human; settings: Homo sapiens, MCF7; 48 h, CCK-8, mean ± SD
Description: as §1, §2, §3

A549 cells = assay: CCK-8 proliferation assay, A549; type: cell-based, human; settings: Homo sapiens, A549; 48 h, CCK-8, mean ± SD
Description: as §1, §2, §3

[1] = test system: three cancer cell lines (MGC-803, MCF-7, A549); assay: CCK-8 proliferation assay, three cancer cell lines together; type: cell-based; settings: Homo sapiens, 48 h, read-out: IC50 values toward three cancer cell lines
Description: as §1, §2
Synthesized analogues used in the study were dissolved in 100% cell culture grade DMSO and the final concentration of DMSO as <0.1% for testing on cancer cell lines. […] The absorbance was measured using a microplate reader (BioTek Instrument, Inc. Vermont, USA) with a test wavelength of 450 nm. The absorbance levels were corrected against untreated control absorbance values. […]

tubulin [2] = test system: tubulin; design: method as in PMID 15588080; settings: cited from earlier work
tubulin [3] = test system: tubulin; design: method as in PMID 11058036; settings: read-out: anti-tubulin activity IC50; cited from earlier work

| SMILES | IC50 (MGC-803 cells) [nM] | IC50 (MCF-7 cells) [nM] | IC50 (A549 cells) [nM] | melting point [°C] | also measured |
| --- | --- | --- | --- | --- | --- |
| COc1cccc(/C=C/C(=O)N=[N+]=[N-])c1OC [Compound 1] | – | – | – | – | in vitro and in vivo antitumor effect of romidepsin on bladder cancer cells (bladder cancer cells): enhanced |
| CC(=O)OC1C(=O)C2(C)C(O)CC3OCC3(OC(C)=O)C2C(OC(=O)c2ccccc2)C2(O)CC(OC(=O)C(O)C(NC(=O)c3ccccc3)c3ccc(N=[N+]=[N-])cc3)C(C)=C1C2(C)C (stereo not drawn) [Compound 3, 3′-(4-Azidophenyl)-3′-dephenylpaclitaxel] | – | – | – | – | activity in tubulin assembly and cytotoxicity assays (tubulin [2]): as active as paclitaxel |
| COc1cc(/C=C\c2cc(OC)c(OC)c(OC)c2)ccc1N=[N+]=[N-] [Compound 2] | – | – | – | – | IC50 (tubulin [3]): 5200 nM |
| COc1ccc(N2C(=O)[C@H](c3ccc(Cl)cc3)[C@H]2c2ccc(N=[N+]=[N-])cc2)cc1 (relative stereo) [Compound 14, trans-4-(4-azidophenyl)-3-(4-chlorophenyl)-1-(4-methoxyphenyl)azetidin-2-one] | > 20000 | > 20000 | > 20000 | 147 to 149 | – |

Further lines, with some results ahead:

| IC50 (MGC-803 cells) [nM] | IC50 (MCF-7 cells) [nM] | IC50 (A549 cells) [nM] | melting point [°C] | SMILES | also measured |
| --- | --- | --- | --- | --- | --- |
| 251 ± 53 | 154 ± 19 | 4200 ± 186 | – | COc1cc(N2C(=O)[C@H](c3cccs3)[C@H]2c2ccc(N=[N+]=[N-])cc2)cc(OC)c1OC (relative stereo) [Compound 26, trans-4-(4-azidophenyl)-3-(thiophen-2-yl)-1-(3,4,5-trimethoxyphenyl)azetidin-2-one] | IC50 [1]: 154 to 4200 nM |
| 392 ± 28 | 805 ± 176 | 2130 ± 390 | 128 to 129 | COc1cc(N2C(=O)[C@@H](c3ccccc3)[C@@H]2c2cccc(N=[N+]=[N-])c2)cc(OC)c1OC (relative stereo) [Compound 25, trans-4-(3-azidophenyl)-3-phenyl-1-(3,4,5-trimethoxyphenyl)azetidin-2-one] | – |
